Reference: patent US11214556B1, “Method of treating colorectal cancer” (King Abdulaziz University, priority 2019, dated 2022)

System: Swiss albino mice
Assay: Acute oral toxicity (LD50), OECD guideline 423
Type: in vivo
Conditions: oral, mice
From the text: Since compounds with electrophilic properties, e.g., MA are usually involved in a variety of toxic effects on mammalians, the general acute toxicity of 1512, 3712 and 4112 was investigated by determining the in vivo lethal dose (LD50) according to the Globally Harmonized Classification System (GHS) and following the Organization for Economic Cooperation and Development (OECD) guideline 423 (modified, adopted Mar. 23, 2006). As observed in the cellular assay, the compound safety was confirmed, as the LD50 for all compounds were between 2000-5000 mg/kg (Category 5). See Spielmann, H.; Genschow, E.; Liebsch, M.; Halle, W., Determination of the starting dose for acute oral toxicity (LD50) testing in the up and down procedure (UDP) from cytotoxicity data. ATLA 1999, 27 (6), 957-966, incorporated herein by reference in its entirety.
The experiment was conducted on 12 healthy Swiss albino mice (males and females) weighing 22-27 g and aged 8 to 10 weeks obtained from the Animal Station, Pharmacology Dept, Faculty of Pharmacy, King Abdulaziz University, Jeddah. See Shoieb, S. M.; Esmat, A.; Khalifa, A. E.; Abdel-Naim, A. B., Chrysin attenuates testosterone-induced benign prostate hyperplasia in rats. Food and Chemical Toxicology 2018, 111, 650-659, incorporated herein by reference in its entirety. All animals were kept at the regulated temperature (average 23° C.), air quality (Central air conditioning) and light (12-h light/dark cycles). Animals were provided free access to food pellets ad libitum and water. The experimental procedure was approved by the Research Ethics Committee, Faculty of Pharmacy, King Abdulaziz University prior to starting the laboratory work. Animals were humanely treated according to international and scientific principles. Changes other than vitality of the animals such as behavioral and food consumption habits were not observed in this study.
The compounds 1512, 3712 and 4112 of purity 95% or more (LC/MS) were prepared for this study as 10% suspension in water containing 0.5% tween 80.
The animals were distributed randomly into four groups (3 mice at each group). […] The second group received an oral dose of 2000 mg/Kg of the drug and observed after 24 h to count the deceased animals. According to the Guideline 423, when all animals were found alive, the same test was repeated (dose 2000 mg/kg) were given to the third group (3 animals) and observed for 24 h. All animals survived and therefore, a dose of 5000 mg/kg were administered to the fourth and final group.

## CCCNC(=O)/C(=C/c1c[nH]c2ccccc12)NC(=O)/C=C/c1cccs1 [Compound 4112, (Z)-3-(1H-indol-3-yl)-N-propyl-2-[(E)-3-(thien-2-yl)acrylamidolacry]amide]
  GHS acute toxicity category: Category 5
